Laboratory results from patent US10617693B2, “Methods of treating and/or preventing actinic keratosis” (Athenex, Inc., priority 2017, dated 2020).

Tested on: subjects with AK on the face or scalp
Experiment: Phase 2a study KX01-AK-002: local skin reactions (grade 0 not present to 4 worst) and adverse events, 0.5 mg KX-01 on 25 cm^2
Format: in vivo, human
Text: An ongoing Phase 2a, open-label, multicenter, activity and safety study of KX-01 administered topically in subjects with AK on the face or scalp is described herein. […] Secondary objectives are to assess the activity of KX-01 administered topically during Days 1-57 based on reduction of AK lesion counts from baseline, assess the safety and tolerability and pharmacokinetics, and contrast the dose regimens (5-day treatment with 3-day treatment) in terms of activity and safety in subjects with AK on the face or scalp. This uncontrolled, nonrandomized trial is being conducted at 16 investigational sites in the United States. Enrollment is sequential for 2 cohorts of approximately 80 subjects each. Enrollment is closed for Cohort 1 and ongoing for Cohort 2. The two treatment cohorts are summarized below: • Cohort 1: 0.5 mg KX-01 administered topically to a contiguous treatment area of 25 cm^2 with 4-8 clinically typical AK lesions for 5 consecutive days • Cohort 2: 0.5 mg KX-01 administered topically to a contiguous treatment area of 25 cm^2 with 4-8 clinically typical AK lesions for 3 consecutive days
0.5 mg KX-01 is administered topically to an area of 25 cm^2 on the face or scalp by site staff on treatment days. […] AK lesion counts are recorded at baseline, days 8, 15, 29, and 57. […] Standardized photography of treatment area is performed at baseline, day 8 and day 57. Plasma samples are being collected at preplanned time points on days 1 and 5 for Cohort 1, and on days 1 and 3 for Cohort 2.
Absence or presence of hyperpigmentation, hypopigmentation and scarring are also assessed. Application site reactions not classified as LSRs are reported as AEs. […] LSRs and AEs are reported separately. All LSRs, pigmentation, and scarring in the treatment area will be followed to resolution or stabilization.
The range of possible composite scores is 0-24.
The Phase 2a trial described in Example 2a was completed with 84 eligible subjects enrolled in each of two cohorts: one cohort was subjected to the treatment for 5 consecutive days, and the other cohort was subjected to the treatment for 3 consecutive days. The results are described below and in FIG. 5.

With `O=C(Cc1ccc(-c2ccc(OCCN3CCOCC3)cc2)cn1)NCc1ccccc1` [KX-01] the “Vesiculation/Pustulation grade 0, n/N subjects” value (Day 3, Cohort 1 (5-day)) was 67/67, the “Vesiculation/Pustulation grade 1, n/N subjects” value (Day 3, Cohort 1 (5-day)) was 0 and the “Vesiculation/Pustulation grade 2, n/N subjects” value (Day 3, Cohort 1 (5-day)) was 0. The “Vesiculation/Pustulation grade 3, n/N subjects” value (Day 3, Cohort 1 (5-day)) was 0, the “Vesiculation/Pustulation grade 4, n/N subjects” value (Day 3, Cohort 1 (5-day)) was 0 and the “Crusting grade 0, n/N subjects” value (Day 4, Cohort 1 (5-day)) was 61/67. For the same compound, the “Crusting grade 1, n/N subjects” value (Day 4, Cohort 1 (5-day)) was 4/67, the “Crusting grade 2, n/N subjects” value (Day 4, Cohort 1 (5-day)) was 2/67 and the “Crusting grade 3, n/N subjects” value (Day 4, Cohort 1 (5-day)) was 0. The “Crusting grade 4, n/N subjects” value (Day 4, Cohort 1 (5-day)) was 0, the “Erosion/Ulceration grade 0, n/N subjects” value (Day 4, Cohort 1 (5-day)) was 65/67 and the “Erosion/Ulceration grade 1, n/N subjects” value (Day 4, Cohort 1 (5-day)) was 2/67. For the same compound, the “Erosion/Ulceration grade 2, n/N subjects” value (Day 4, Cohort 1 (5-day)) was 0, the “Erosion/Ulceration grade 3, n/N subjects” value (Day 4, Cohort 1 (5-day)) was 0 and the “Erosion/Ulceration grade 4, n/N subjects” value (Day 4, Cohort 1 (5-day)) was 0. For the same compound, the “Erythema grade 0, n/N subjects” value (Day 4, Cohort 1 (5-day)) was 19/67, the “Erythema grade 1, n/N subjects” value (Day 4, Cohort 1 (5-day)) was 26/67 and the “Erythema grade 2, n/N subjects” value (Day 4, Cohort 1 (5-day)) was 17/67. The “Erythema grade 3, n/N subjects” value (Day 4, Cohort 1 (5-day)) was 5/67, the “Erythema grade 4, n/N subjects” value (Day 4, Cohort 1 (5-day)) was 0 and the “Flaking/Scaling grade 0, n/N subjects” value (Day 4, Cohort 1 (5-day)) was 43/67. For the same compound, the “Flaking/Scaling grade 1, n/N subjects” value (Day 4, Cohort 1 (5-day)) was 16/67, the “Flaking/Scaling grade 2, n/N subjects” value (Day 4, Cohort 1 (5-day)) was 5/67 and the “Flaking/Scaling grade 3, n/N subjects” value (Day 4, Cohort 1 (5-day)) was 3/67. The “Flaking/Scaling grade 4, n/N subjects” value (Day 4, Cohort 1 (5-day)) was 0, the “Swelling grade 0, n/N subjects” value (Day 4, Cohort 1 (5-day)) was 65/67 and the “Swelling grade 1, n/N subjects” value (Day 4, Cohort 1 (5-day)) was 2/67. For the same compound, the “Swelling grade 2, n/N subjects” value (Day 4, Cohort 1 (5-day)) was 0, the “Swelling grade 3, n/N subjects” value (Day 4, Cohort 1 (5-day)) was 0 and the “Swelling grade 4, n/N subjects” value (Day 4, Cohort 1 (5-day)) was 0. The “Vesiculation/Pustulation grade 0, n/N subjects” value (Day 4, Cohort 1 (5-day)) was 66/67, the “Vesiculation/Pustulation grade 1, n/N subjects” value (Day 4, Cohort 1 (5-day)) was 1/67 and the “Vesiculation/Pustulation grade 2, n/N subjects” value (Day 4, Cohort 1 (5-day)) was 0. For the same compound, the “Vesiculation/Pustulation grade 3, n/N subjects” value (Day 4, Cohort 1 (5-day)) was 0, the “Vesiculation/Pustulation grade 4, n/N subjects” value (Day 4, Cohort 1 (5-day)) was 0 and the “Crusting grade 0, n/N subjects” value (Day 5, Cohort 1 (5-day)) was 56/67. For the same compound, the “Crusting grade 1, n/N subjects” value (Day 5, Cohort 1 (5-day)) was 9/67, the “Crusting grade 2, n/N subjects” value (Day 5, Cohort 1 (5-day)) was 2/67 and the “Crusting grade 3, n/N subjects” value (Day 5, Cohort 1 (5-day)) was 0. For the same compound, the “Crusting grade 4, n/N subjects” value (Day 5, Cohort 1 (5-day)) was 0, the “Erosion/Ulceration grade 0, n/N subjects” value (Day 5, Cohort 1 (5-day)) was 61/67 and the “Erosion/Ulceration grade 1, n/N subjects” value (Day 5, Cohort 1 (5-day)) was 6/67. The “Erosion/Ulceration grade 2, n/N subjects” value (Day 5, Cohort 1 (5-day)) was 0, the “Erosion/Ulceration grade 3, n/N subjects” value (Day 5, Cohort 1 (5-day)) was 0 and the “Erosion/Ulceration grade 4, n/N subjects” value (Day 5, Cohort 1 (5-day)) was 0. For the same compound, the “Erythema grade 0, n/N subjects” value (Day 5, Cohort 1 (5-day)) was 12/67, the “Erythema grade 1, n/N subjects” value (Day 5, Cohort 1 (5-day)) was 19/67 and the “Erythema grade 2, n/N subjects” value (Day 5, Cohort 1 (5-day)) was 27/67. The “Erythema grade 3, n/N subjects” value (Day 5, Cohort 1 (5-day)) was 9/67, the “Erythema grade 4, n/N subjects” value (Day 5, Cohort 1 (5-day)) was 0 and the “Flaking/Scaling grade 0, n/N subjects” value (Day 5, Cohort 1 (5-day)) was 35/67. The “Flaking/Scaling grade 1, n/N subjects” value (Day 5, Cohort 1 (5-day)) was 21/67, the “Flaking/Scaling grade 2, n/N subjects” value (Day 5, Cohort 1 (5-day)) was 9/67 and the “Flaking/Scaling grade 3, n/N subjects” value (Day 5, Cohort 1 (5-day)) was 2/67. For the same compound, the “Flaking/Scaling grade 4, n/N subjects” value (Day 5, Cohort 1 (5-day)) was 0, the “Swelling grade 0, n/N subjects” value (Day 5, Cohort 1 (5-day)) was 58/67 and the “Swelling grade 1, n/N subjects” value (Day 5, Cohort 1 (5-day)) was 7/67. For the same compound, the “Swelling grade 2, n/N subjects” value (Day 5, Cohort 1 (5-day)) was 1/67, the “Swelling grade 3, n/N subjects” value (Day 5, Cohort 1 (5-day)) was 1/67 and the “Swelling grade 4, n/N subjects” value (Day 5, Cohort 1 (5-day)) was 0. The “Vesiculation/Pustulation grade 0, n/N subjects” value (Day 5, Cohort 1 (5-day)) was 65/67, the “Vesiculation/Pustulation grade 1, n/N subjects” value (Day 5, Cohort 1 (5-day)) was 2/67 and the “Vesiculation/Pustulation grade 2, n/N subjects” value (Day 5, Cohort 1 (5-day)) was 0. The “Vesiculation/Pustulation grade 3, n/N subjects” value (Day 5, Cohort 1 (5-day)) was 0, the “Vesiculation/Pustulation grade 4, n/N subjects” value (Day 5, Cohort 1 (5-day)) was 0 and the “Crusting grade 0, n/N subjects” value (Day 8, Cohort 1 (5-day)) was 51/67. The “Crusting grade 1, n/N subjects” value (Day 8, Cohort 1 (5-day)) was 15/67, the “Crusting grade 2, n/N subjects” value (Day 8, Cohort 1 (5-day)) was 1/67 and the “Crusting grade 3, n/N subjects” value (Day 8, Cohort 1 (5-day)) was 0. The “Crusting grade 4, n/N subjects” value (Day 8, Cohort 1 (5-day)) was 0, the “Erosion/Ulceration grade 0, n/N subjects” value (Day 8, Cohort 1 (5-day)) was 65/67 and the “Erosion/Ulceration grade 1, n/N subjects” value (Day 8, Cohort 1 (5-day)) was 1/67. For the same compound, the “Erosion/Ulceration grade 2, n/N subjects” value (Day 8, Cohort 1 (5-day)) was 1/67, the “Erosion/Ulceration grade 3, n/N subjects” value (Day 8, Cohort 1 (5-day)) was 0 and the “Erosion/Ulceration grade 4, n/N subjects” value (Day 8, Cohort 1 (5-day)) was 0. For the same compound, the “Erythema grade 0, n/N subjects” value (Day 8, Cohort 1 (5-day)) was 14/67, the “Erythema grade 1, n/N subjects” value (Day 8, Cohort 1 (5-day)) was 24/67 and the “Erythema grade 2, n/N subjects” value (Day 8, Cohort 1 (5-day)) was 25/67. The “Erythema grade 3, n/N subjects” value (Day 8, Cohort 1 (5-day)) was 4/67, the “Erythema grade 4, n/N subjects” value (Day 8, Cohort 1 (5-day)) was 0 and the “Flaking/Scaling grade 0, n/N subjects” value (Day 8, Cohort 1 (5-day)) was 26/67. For the same compound, the “Flaking/Scaling grade 1, n/N subjects” value (Day 8, Cohort 1 (5-day)) was 18/67, the “Flaking/Scaling grade 2, n/N subjects” value (Day 8, Cohort 1 (5-day)) was 15/67 and the “Flaking/Scaling grade 3, n/N subjects” value (Day 8, Cohort 1 (5-day)) was 8/67. The “Flaking/Scaling grade 4, n/N subjects” value (Day 8, Cohort 1 (5-day)) was 0, the “Swelling grade 0, n/N subjects” value (Day 8, Cohort 1 (5-day)) was 64/67 and the “Swelling grade 1, n/N subjects” value (Day 8, Cohort 1 (5-day)) was 3/67. For the same compound, the “Swelling grade 2, n/N subjects” value (Day 8, Cohort 1 (5-day)) was 0, the “Swelling grade 3, n/N subjects” value (Day 8, Cohort 1 (5-day)) was 0 and the “Swelling grade 4, n/N subjects” value (Day 8, Cohort 1 (5-day)) was 0. The “Vesiculation/Pustulation grade 0, n/N subjects” value (Day 8, Cohort 1 (5-day)) was 67/67, the “Vesiculation/Pustulation grade 1, n/N subjects” value (Day 8, Cohort 1 (5-day)) was 0 and the “Vesiculation/Pustulation grade 2, n/N subjects” value (Day 8, Cohort 1 (5-day)) was 0.
